Converted amounts (≈) assume the structure as drawn. “Also recorded” adds a separate entry of the source. Like-named read-outs stand apart in the source and are kept apart here.
Columns and labels:
[1] = tested on: Mycobacterium tuberculosis H37Ra (ATCC25177); assay: Antibacterial MIC assay against M. tuberculosis H37Ra; type: cell-based; conditions: lowest concentration inhibiting ≥90% of growth
[2] = tested on: methicillin-resistant Staphylococcus aureus (MRSA) MB5393; assay: Antibacterial MIC assay against MRSA MB5393; type: cell-based
[3] = tested on: Enterococcus faecalis VANS 144492; assay: Antibacterial MIC assay against E. faecalis; type: cell-based
[4] = tested on: Enterococcus faecium VANS 144754; assay: Antibacterial MIC assay against E. faecium; type: cell-based
[5] = tested on: Neisseria gonorrhoeae ATCC49226; assay: Antibacterial MIC assay against N. gonorrhoeae; type: cell-based
[6] = MTT cytotoxicity assay, Hep G2; conditions: human
[7] = tested on: human liver adenocarcinoma cell line (Hep G2); assay: MTT cytotoxicity assay, Hep G2; conditions: for cytotoxicity (in words): Hep G2, in vitro
in vitro = conditions: human
[8] = tested on: zebrafish eleuthero embryos; assay: Zebrafish eleuthero embryos toxicity assay (immersion); type: in vivo; conditions: for developmental abnormalities: 25 μM, 48 h exposure, 5 dpf, representative larvae; for toxicity (lethality and sub-lethal toxicity): 3 dpf larvae, 48 h immersion, 1.6–25 μM, read at 5 dpf
Protocol: The compounds were dissolved in dimethyl sulfoxide (DMSO) and then diluted in the fish medium (Danieau) in which the 3 dpf zebrafish larvae were swimming for 48 h. The concentrations tested were 1.6, 3.13, 6.25, 12.5 and 25 μM for each of the three compounds. Vehicle-treated Control eleuthero embryos (VHC) were also treated with the same concentration of DMSO (0.5%) in fish medium to compare the possible effects of the compounds.
After the 48 h exposure, corresponding to 5 dpf larvae, the possible mortality, touch-stimulation response and developmental abnormalities were examined using a dissecting microscope coupled with a digital color camera and pictures were captured. Then, the score for the sub-lethal toxicity and lethality was determined for each fish and condition and the mean score was calculated. The assays were independently replicated three times, using 10 embryos for each condition and compound in each assay, and thus the total number of zebrafish embryos used was 480.
Each of the three compounds (3, 4 and 7) was dissolved in 100% dimethyl sulfoxide (DMSO, spectroscopy grade) and diluted in Danieau’s medium to a final concentration of 25 μΜ (0.5% DMSO), followed by ½ serial dilutions to provide five testing concentrations (1.6, 3.13, 6.25, 12.5 and 25 μM).
Next, 3 dpf zebrafish eleuthero embryos randomly selected were immersed in a 24-well plate containing the three compounds in the different testing concentrations (n = 10 larvae per well). At the same time, 10 Vehicle-treated Control eleuthero embryos (VHC) were also treated with 0.5% DMSO, in accordance with the final solvent concentration of testing compounds to compare the possible effects of the compounds. The eleuthero embryos were incubated under a 14/10 h light/dark cycle at 27–28 °C.
After the 48 h exposure, at 5 dpf, the lethality (cardiac rhythm and degraded body were used as clinical criteria) and touch-stimulation response were assessed using non-anesthetized eleuthero embryos, while the possible morphological defects were evaluated after anesthetizing the eleuthero embryos in 0.5 mM tricaine. All observations were performed using an M80 stereo microscope (Leica Microsystems, Danaher Co., Wetzlar, Germany) and pictures were captured with a Leica DFC310 FX digital color camera (Leica Microsystems, Danaher Co., Germany) and stored.
Mean score of lethality and sub-lethal toxicity per condition was calculated as follows: To each adverse effect observed (impaired motility, bad development, body curvature and swim bladder defects) a score of 1 was given (maximum 4 per larva), and a score of 6 to each dead embryo. The mean score was then calculated for all eleuthero embryos (pooled results) examined per condition, as performed before.
The results were obtained from three independent experiments, using ten larvae for each test concentration and compound. Statistical analysis was performed by using GraphPad Prism version 9.0 (GraphPad Software Inc., San Diego, CA, USA) and one-way analysis of variance (ANOVA) followed by Tukey’s multiple comparison test. The criterion for statistical significance was p < 0.05.

[9] = tested on: human liver adenocarcinoma cell line (Hep G2)
[10] = Mycobacterium tuberculosis, read-out: MIC
[11] = Staphylococcus aureus, MRSA MB5393, lowest concentration inhibiting ≥90% of growth after overnight incubation, read-out: MIC
[12] = Enterococcus faecalis, VANS144492, E. faecalis VANS 144492, lowest concentration inhibiting ≥90% of growth, read-out: MIC
[13] = Enterococcus faecium, VANS144754, E. faecium VANS 144754, lowest concentration inhibiting ≥90% of growth, read-out: MIC
[14] = Neisseria gonorrhoeae, N. gonorrhoeae ATCC49226, lowest concentration inhibiting ≥90% of growth, read-out: MIC
[15] = Enterococcus faecalis, VANS144492
[16] = Enterococcus faecium, VANS144754
[17] = Neisseria gonorrhoeae, ATCC49226

Molecule | MIC [1, 10] [µM] | MIC [2, 11] [µM] | MIC [3, 12] [µM] | MIC [4, 13] [µM] | MIC [5, 14] [µM] | IC50 (in vitro) [µM] | other results
[H]/N=C(/N)N[C@H]1[C@H](O)[C@@H](O)[C@H](O[C@@H]2O[C@@H](C)[C@](O)(C=O)[C@H]2O[C@@H]2O[C@@H](CO)[C@H](O)[C@@H](O)[C@@H]2NC)[C@@H](N/C(N)=N\[H])[C@@H]1O [streptomycin, reference compound] | 2.8 to 5.4 (≈ 1.63 to 3.14 µg/mL) | – | – | – | – | – | MIC [1]: 2.8–5.4 (S) μM
CC(=O)[C@](C)(O)[C@@H](O)C[C@@H]1C[C@@]23OC(=O)C(=C2O)OC(=O)[C@@]2(C)[C@H]4[C@H](C=C[C@H]2[C@H](C)/C=C/C[C@]3(C)C=C1C)[C@@H](O[C@@H]1O[C@H](C)[C@@H](O)[C@H](O[C@H]2O[C@H](C)[C@@H](OC(=O)c3c(O)ccc(Cl)c3C)[C@H](O)[C@H]2O)[C@H]1O)[C@H](C)C[C@@H]4C [Compound 5, phocoenamicin C] | 29.4 to 58.8 (≈ 32 to 64 µg/mL) | 29.4 (≈ 32 µg/mL) | > 58.8 | > 58.8 | > 58.8 | – | IC50 [6]: > 58.8 µM
CN[C@H](CC(C)C)C(=O)N[C@H]1C(=O)N[C@@H](CC(N)=O)C(=O)N[C@H]2C(=O)N[C@H]3C(=O)N[C@H](C(=O)N[C@H](C(=O)O)c4cc(O)cc(O)c4-c4cc3ccc4O)[C@H](O)c3ccc(c(Cl)c3)Oc3cc2cc(c3O[C@@H]2O[C@H](CO)[C@@H](O)[C@H](O)[C@H]2O[C@H]2C[C@](C)(N)[C@H](O)[C@H](C)O2)Oc2ccc(cc2Cl)[C@H]1O [vancomycin, reference compound] | – | 1.4 (≈ 2.03 µg/mL) | 1.4 (≈ 2.03 µg/mL) | 1.4 (≈ 2.03 µg/mL) | – | – | MIC ([2]; MRSA MB5393, lowest concentration inhibiting ≥90% of growth after overnight incubation): 1.4 (V) μM; MIC ([3]; E. faecalis VANS 144492, lowest concentration inhibiting ≥90% of growth): 1.4 (V) μM; MIC ([4]; E. faecium VANS 144754, lowest concentration inhibiting ≥90% of growth): 1.4 (V) μM
Cc1c(Cl)ccc(O)c1C(=O)O[C@H]1[C@H](O)[C@@H](O)[C@@H](O[C@@H]2[C@@H](O)[C@H](O[C@@H]3[C@H]4C=C[C@H]5[C@H](C)/C=C/C[C@]6(C)C=C(CO)[C@H](C[C@@H](C)O)C[C@]67OC(=O)C(=C7O)C(=O)[C@@]5(C)[C@@H]4[C@@H](C)C[C@H]3C)O[C@H](C)[C@H]2O)O[C@@H]1C [Compound 2, Phocoenamicin E] | 31.5 to 63 (≈ 32 to 64 µg/mL) | – | > 63 | > 63 | > 126 | – | MIC ([2]; Staphylococcus aureus, MRSA): 31.5 to 63 µM (≈ 32 to 64 µg/mL); IC50 [6]: 21 µM; cytotoxicity (in words) [7]: moderate activity
penicillin [reference compound] | – | – | – | – | – | – | MIC ([5]; N. gonorrhoeae ATCC49226, lowest concentration inhibiting ≥90% of growth): 5.6 (P) μM
CC(=O)C(C)(O)C(O)CC1CC23OC(=O)C(=C2O)OC(=O)C2(C)C(C=CC4C(OC5OC(C)C(O)C(OC6OC(C)C(OC(=O)c7c(O)ccc(Cl)c7C)C(O)C6O)C5O)C(C)CC(C)C42)C(C)C=CCC3(C)C=C1CO (stereo not shown) [Compound 1, Phocoenamicin D] | 58 (≈ 64 µg/mL) | – | – | – | – | > 58.8 | MIC ([2]; Staphylococcus aureus, MRSA): 58 µM (≈ 64 µg/mL); MIC [3, 15]: > 58 µM; MIC [4, 16]: ≥ 116 µM; MIC [5, 17]: > 116 µM
CC(=O)[C@](C)(O)[C@@H](O)C[C@@H]1C[C@@]23OC(=O)C(=C2O)C(=O)[C@@]2(C)[C@H]4[C@H](C=C[C@H]2[C@H](C)/C=C/C[C@]3(C)C=C1C)[C@@H](O[C@@H]1O[C@H](C)[C@@H](O)[C@H](O[C@H]2O[C@H](C)[C@@H](OC(=O)c3c(O)ccc(Cl)c3C)[C@H](O)[C@H]2O)[C@H]1O)[C@H](C)C[C@@H]4C [Compound 3, phocoenamicin] | 7.5 (≈ 8.04 µg/mL) | 3.7 (≈ 3.97 µg/mL) | 7.5 (≈ 8.04 µg/mL) | 3.7 to 7.5 (≈ 3.97 to 8.04 µg/mL) | > 119 | – | developmental abnormalities [8]: no developmental abnormalities; toxicity (lethality and sub-lethal toxicity) [8]: no toxicity; also recorded: not to be toxic; IC50 [6]: > 58.8 µM
CC(=O)[C@](C)(O)[C@@H](O)C[C@@H]1C[C@@]23OC(=O)C(=C2O)C(=O)[C@@]2(C)[C@H]4[C@H](C=C[C@H]2[C@H](C)/C=C/C[C@]3(C)C=C1CO)[C@@H](O[C@@H]1O[C@H](C)[C@@H](O)[C@H](O[C@H]2O[C@H](C)[C@@H](OC(=O)c3c(O)ccc(Cl)c3C)[C@H](O)[C@H]2O)[C@H]1O)[C@H](C)C[C@@H]4C [Compound 4, phocoenamicin B] | 14.7 (≈ 16 µg/mL) | – | – | – | – | 17.6 | MIC ([2]; Staphylococcus aureus, MRSA): 7.4 µM (≈ 8.05 µg/mL); MIC [3, 15]: > 58.8 µM; MIC [4, 16]: ≥ 58.8 µM; MIC [5, 17]: > 118 µM; developmental abnormalities [8]: no developmental abnormalities; toxicity (lethality and sub-lethal toxicity) [8]: no toxicity; also recorded: not to be toxic; cytotoxicity (in words) [7]: moderate activity
CC1=CC2(C)CC=CC(C)C3C=CC4CC(C)CCC4C3(C)C(=O)C3=C(O)C2(CC1CC(C)O)OC3=O (stereo not shown) [Compound 6, Maklamicin B] | 2 (≈ 1.02 µg/mL) | 2 (≈ 1.02 µg/mL) | 62.9 (≈ 32 µg/mL) | 1 (≈ 0.509 µg/mL) | > 252 | > 58.8 | –
COS(C)(=O)=O [MMS, Methyl methanesulfonate, reference compound] | – | – | – | – | – | – | cell death (positive control) ([7]; Hep G2, MTT, 2 mM): 100%
C[C@H]1CC[C@@H]2[C@H](C=C[C@H]3[C@H](C)/C=C/C[C@]4(C)C=C(CO)[C@H](C[C@@H](C)O)C[C@]45OC(=O)C(=C5O)C(=O)[C@@]23C)C1 [Compound 7, maklamicin] | 61 (≈ 32 µg/mL) | < 0.5 | 1.9 (≈ 0.997 µg/mL) | 1 (≈ 0.525 µg/mL) | > 244 | 40.2 | MIC ([2]; MRSA MB5393, lowest concentration inhibiting ≥90% of growth after overnight incubation, read-out: MIC): <0.5 µM; toxicity (lethality and sub-lethal toxicity) [8]: no toxicity; also recorded: not to be toxic; cytotoxicity (in words) [9]: moderate activity
